The results in this text go back to patent publication US10533228B2, “3.beta-hydroxysteroid dehydrogenase in steroid dependent disease” (THE CLEVELAND CLINIC FOUNDATION, priority 2013, dated 2020).

Where a SMILES comes first, the peptide text is derived from it. The star is where a group is joined. Cbz = O=C(OCc1ccccc1)*

The subject of one series is 3βHSD1 (367N). Description: Western blot of endogenous 3βHSD1 protein in LAPC4 after degradation inhibitor. The settings on record: LAPC4, 10 μM. In kind it is cell-based, human. An excerpt:
For Western blot analysis, whole cell protein extract was harvested using RIPA buffer (Sigma-Aldrich) with protease inhibitor cocktail (Roche). […] The protein was transferred to a PVDF membrane and was detected by mouse anti-3βHSD1 (Sigma), rabbit anti-HA (Santa Cruz Biotechnology, Santa Cruz, Calif.), and mouse anti-β-actin (Sigma) antibodies. […]
On the technique in general: Immunoblotting shows a protein as a band on a membrane.

The subject of the next series is 3βHSD1 (367T). Nature of the series: Western blot of endogenous 3βHSD1 protein in LNCaP after proteasome inhibitor. In kind it is cell-based, human. The settings on record: 10 μM, 8 hours. The method, then:
For Western blot analysis, whole cell protein extract was harvested using RIPA buffer (Sigma-Aldrich) with protease inhibitor cocktail (Roche). Protein concentration was determined by BCA Protein Assay Reagent (Thermo Scientific, Rockford, Ill.), and 20 μg protein was resolved by 8.5% SDS-PAGE. The protein was transferred to a PVDF membrane and was detected by mouse anti-3βHSD1 (Sigma), rabbit anti-HA (Santa Cruz Biotechnology, Santa Cruz, Calif.), and mouse anti-β-actin (Sigma) antibodies. To determine the role of the ERAD pathway in 3βHSD1 stability, cells were treated with Eeyarestatin (Sigma) for 6 hours before harvesting cell lysate.

Series [1] deals with polyubiquitinated 3βHSD1 (367N). Nature of the series: Anti-ubiquitin immunoprecipitation in LAPC4. It counts as cell-based, human. The settings on record: LAPC4, 10 μM; 8 hours. As for the experimental part: Pre-cleared lysate was incubated with mouse anti-ubiquitin antibody (Santa Cruz) at 4° C. for 3 hours and followed by adding 40 μl of Protein AG UltraLink Resin (Thermo Scientific) for another hour for pull down. After extensive washing with lysis buffer, the purified proteins were eluted with 25 μl 2×SDS sample buffer and analyzed by Western blot.

The test system of series [2] is polyubiquitinated 3βHSD1(367T). Nature of the series: Anti-ubiquitin immunoprecipitation in LNCaP. The settings on record: 10 uM, 8 hours. It counts as cell-based, human.
For a further series, the system named is 3βHSD1. Nature of the series: Lentiviral shRNA knockdown, 3βHSD1 immunoblot in LNCaP. In kind it is cell-based, human. The following applies: stable lentiviral expression. As for the experimental part: Lentiviral vector construction, viral packaging and infection were performed as previously described. Chang et al., Proc. Natl. Acad. Sci. USA, 108, 13728-13733 (2011). Briefly, […] miR30-styled shRNA sequences (#1: 5′-[…] […]-3′ (SEQ ID NO: 9); #2: 5′-[…] […]-3′ (SEQ ID NO: 10)) against HSD3B1 were PCR amplified and cloned into the pGIPZ vector (Open Biosystems, Huntsville, Ala.) and confirmed by sequencing. Virus packaging was carried out in 293T cells by co-transfecting 10 μg each of pGIPZ, pMD2.G, and psPAX2 vector. To increase transduction efficiency, 30 mL supernatant containing lentiviral particles were collected, filtered with a 0.45 μm nitrocellulose membrane and concentrated by ultracentrifugation at 19,000 rpm for 2 hours and 20 minutes at room temperature without brake. […]
For Western blot analysis, whole cell protein extract was harvested using RIPA buffer (Sigma-Aldrich) with protease inhibitor cocktail (Roche). Protein concentration was determined by BCA Protein Assay Reagent (Thermo Scientific, Rockford, Ill.), and 20 μg protein was resolved by 8.5% SDS-PAGE. The protein was transferred to a PVDF membrane and was detected by mouse anti-3βHSD1 (Sigma), rabbit anti-HA (Santa Cruz Biotechnology, Santa Cruz, Calif.), and mouse anti-β-actin (Sigma) antibodies. […]

The subject of another series is LNCaP xenografts. Nature of the series: LNCaP xenograft CRPC growth in orchiectomized mice with DHEA pellet. It counts as in vivo, mouse. The following applies: orchiectomy and DHEA pellet. The method, then: Mouse xenograft studies and abiraterone acetate treatment were done as described in detail previously. Li et al., Clin Cancer Res 18, 3571-3579 (2012). Briefly, male NOD/SCID mice 6 to 8 weeks of age were obtained from the UT Southwestern Animal Resources Center, underwent surgical orchiectomy and a DHEA pellet (5 mg 90-day sustained-release) implantation and 2 days later underwent subcutaneous injection with 7×10^6 LAPC4 cells. Tumors reaching 300 mm^3 volume were treated with intraperitoneal abiraterone acetate or vehicle (n=8 mice per treatment) once daily for 5 days per week for 4 weeks. Tumors were fresh frozen upon mouse sacrifice. For the studies of mutant 3βHSD1 knockdown, LNCaP cells (7×10^6) stably expressing shHSD3B1 #1, #2 and shCTRL were subcutaneously injected with matrigel into eugonadal NOD/SCID mice (n=15 per group). Mice with tumors reaching 100 mm^3 volume underwent surgical castration and DHEA pellet implantation. Time from castration to tumor volume ≥600 mm^3 was assessed. For the comparison between wild type and mutant 3βHSD1, LAPC4 cells (7×10^6) stably expressing pLVX-Tight-Puro-HSD3B1 (367N) or pLVX-Tight-Puro-HSD3B1 (367T) were subcutaneously injected into surgically orchiectomized NOD/SCID mice supplemented with a DHEA (5 mg 90-day sustained-release) pellet. Tumor diameters were measured by digital calipers two or three times per week.

Regarding `CC(C)C[C@@H](C=O)NC(=O)[C@H](CC(C)C)NC(=O)[C@H](CC(C)C)NC(=O)OCc1ccccc1` [MG132] (Cbz-Leu-Leu-Leu-aldehyde), in the series with 3βHSD1 (367N) (8 hours), the “3βHSD1 (367N) protein level” value is “reverses 3βHSD1 (367N) protein loss”. In addition, in the series with 3βHSD1 (367T), the “3βHSD1 (367T) protein level” value is given as “no 3βHSD1 (367T) protein increase”. The “polyubiquitinated 3βHSD1 (367N) protein” value in series [1] was “increase in polyubiquitinated 3βHSD1 (367N) protein”. Moreover, in series [2], the “polyubiquitinated 3βHSD1(367T) protein” value is recorded as “no increase in polyubiquitinated 3βHSD1(367T) protein”.
As for `CC1(C)C(N(O)C(=O)Nc2ccc(Cl)cc2)N(c2ccc(Cl)cc2)C(=O)N1CC(=O)N/N=C/C=C/c1ccc([N+](=O)[O-])o1` (stereo not drawn) [Eeyarestatin I], in the series on 3βHSD1 (367N), the “endogenous 3βHSD1 protein” value is recorded as “increases endogenous 3βHSD1 protein”.

B1: shHSD3B1 #1: lentiviral miR30-styled shRNA against HSD3B1 (SEQ ID NO: 9) (nucleic acid)
chain: TGCTGTTGACAGTGAGCGACCTCATACAGAAAGTGACAAGTAGTGAAGCCACAGATGTACTTGTCACTTTCTGTATGAGGCTGCCTACTGCCTCGGA
For B1, in the series on 3βHSD1, the 3βHSD1 protein expression result is on record as “silences 3βHSD1 protein expression”. Moreover, the “CRPC growth (days from orchiectomy to tumor volume ≥600 mm^3)” value in the series on LNCaP xenografts was “blocks CRPC growth”.

B2: shHSD3B1 #2: lentiviral miR30-styled shRNA against HSD3B1 (SEQ ID NO: 10) (nucleic acid)
chain: TGCTGTTGACAGTGAGCGAAGAGGAAAGACCATGTGGTTTTAGTGAAGCCACAGATGTAAAACCACATGGTCTTTCCTCTGTGCCTACTGCCTCGGA
Take B2: the 3βHSD1 protein expression entry in the series on 3βHSD1 is recorded as “silences 3βHSD1 protein expression”. Besides, in the series on LNCaP xenografts, the “CRPC growth (days from orchiectomy to tumor volume ≥600 mm^3)” value is reported as “blocks CRPC growth”.
